Results taken from patent US11746116B2, “Antibiotic resistance breakers” (KING'S COLLEGE LONDON, priority 2017, dated 2023).
≈ marks a conversion by molar mass, not a printed value. Where a name gives a salt, the structure may show the parent alone. Read-outs that look alike come from different tables or passages of the source.

Legend:
Assay in all cases: MIC, microdilution broth method
KP13368 = type: cell-based
M6 = type: cell-based; conditions: for MIC, M6: ESKAPE panel, Gram-negative
Ab17978 = type: cell-based; conditions: for MIC, Ab17978: ESKAPE panel, Gram-negative
PA01 = type: cell-based, Pseudomonas aeruginosa; conditions: in µg/mL; for MIC: PA01, Normal (no PMBN)
EC12923 = type: cell-based; conditions: for MIC, EC12923: ESKAPE panel, Gram-negative
MSSA9144 = type: cell-based, Staphylococcus aureus
EMRSA15 = type: cell-based, Staphylococcus aureus
EMRSA16 = type: cell-based, Staphylococcus aureus
VSE775 = type: cell-based, Enterococcus faecalis; set-up: MIC, VSE775: unit not given beside the values
VRE12201 = type: cell-based, Enterococcus faecalis
VRE12204 = type: cell-based, Enterococcus faecium; conditions: in µg/mL; for MIC: VRE12204
[1] = KP13368, Normal (no PMBN), in µg/mL
[2] = Ab17978, Normal (no PMBN), in µg/mL
[3] = ESKAPE panel, Gram-positive, in µg/mL

MIC (MSSA9144; MSSA9144, in µg/mL)	MIC (EMRSA15; EMRSA15, in µg/mL)	MIC (EMRSA16; EMRSA16, in µg/mL)	MIC (VSE775; VSE775, in µg/mL)	MIC (VRE12201; VRE12201, in µg/mL)	MIC (VRE12204)	Compound	MIC (KP13368; [1])	MIC (M6; M6, Normal (no PMBN), in µg/mL)	MIC (Ab17978; [2])	MIC (PA01)	MIC (EC12923; EC12923, in µg/mL)	also measured
0.25	16	16-32	4	2	4	CCn1cc(C(=O)O)c(=O)c2cc(F)c(N3CCN(Cc4ccccc4)CC3)cc21 [ML-77-047]	32	4	1-16	32		
0.0625-0.125	8-16		0.25-1	0.125-0.5	1	CN(C)c1ccc(CN2CCN(c3cc4c(cc3F)c(=O)c(C(=O)O)cn4C3CC3)CC2)cc1 [ML-77-112]		1-2	0.5-1	8		
0.125-0.25	16-32	>32	4-8	2	0.25	CCn1cc(C(=O)O)c(=O)c2cc(F)c(N3CCN(Cc4ccc(N(C)C)cc4)CC3)cc21 [ML-77-113]	32	4-16	2	16-32		
1	2	2	2	4	2	O=C(O)c1cn(C2CC2)c2cc(N3CCN(Cc4ccc(-c5ccccc5)cc4)CC3)c(F)cc2c1=O [ML-77-133]		1	2	4		
0.5	32	32	4-8	4	8	CCn1cc(C(=O)O)c(=O)c2cc(F)c(N3CCN(Cc4ccc(CO)cc4)CC3)cc21 [ML-77-148, 1-ethyl-6-fluoro-7-(4-(4-(hydroxymethyl)benzyl)piperazin-1-yl)-4-oxo-1,4-dihydroquinoline-3-carboxylic acid]	32	4	2	32		
0.25	4-8	8	2-4	1	8	Cc1cc(C)cc(CN2CCN(c3cc4c(cc3F)c(=O)c(C(=O)O)cn4C3CC3)CC2)c1 [ML-77-149]		4-8	4	32		
<0.12	8	16	8	4	16	CCn1cc(C(=O)O)c(=O)c2cc(F)c(N3CCN(Cc4ccc(-c5csnn5)cc4)CC3)cc21 [ML-77-161, 7-(4-(4-(1,2,3-thiadiazol-4-yl)benzyl)piperazin-1-yl)-1-ethyl-6-fluoro-4-oxo-1,4-dihydroquinoline-3-carboxylic acid]	64	4-8	2	64		
0.5			2-4	2-4	16	COCc1cccc(CN2CCN(c3cc4c(cc3F)c(=O)c(C(=O)O)cn4C3CC3)CC2)c1 [ML-83-036]		8	2		4	
0.25	16-32		1-2	1	16	COCc1ccc(CN2CCN(c3cc4c(cc3F)c(=O)c(C(=O)O)cn4C3CC3)CC2)cc1 [ML-83-050]		2	1		1	

The remaining lines, values behind:

Compound	MIC (MSSA9144; MSSA9144, in µg/mL)	MIC (EMRSA15; EMRSA15, in µg/mL)	MIC (EMRSA16; EMRSA16, in µg/mL)	MIC (VSE775; VSE775, in µg/mL)	MIC (VRE12201; VRE12201, in µg/mL)	MIC (VRE12204)	MIC (KP13368; [1])	MIC (M6; M6, Normal (no PMBN), in µg/mL)	MIC (Ab17978; [2])	MIC (PA01)	MIC (EC12923; EC12923, in µg/mL)	also measured
COC(=O)c1cnc(N2CCN(c3c(F)cc4c(=O)c(C(=O)O)cn5c4c3OC[C@@H]5C)CC2)nc1 [Compound 82-KSN-L8]	≤0.12	8	16	4	2	4	32	4	2	32	4	
CCn1cc(C(=O)O)c(=O)c2cc(F)c(N3CCN(Cc4cccc5c4OCO5)CC3)cc21 [ML-77-035]	0.5	>32	>32	8	4	8		8-16	2-4	64-128		
CCn1cc(C(=O)O)c(=O)c2cc(F)c(N3CCN(Cc4cccc5cccnc45)CC3)cc21 [ML-77-053]	1			16	8		64	8	4	64		
CCn1cc(C(=O)O)c(=O)c2cc(F)c(N3CCN(Cc4ccc(-n5cccc5)cc4)CC3)cc21 [ML-77-136, 7-(4-(4-(1H-pyrrol-1-yl)benzyl)piperazin-1-yl)-1-ethyl-6-fluoro oxo-1-4-dihydroquinoline-3-carboxylic acid]	0.25-0.5	8	8-16	4-8	4-8	4-8	64-128	8-32	16-32	64-128		
Cc1cc(N2CCN(c3c(F)cc4c(=O)c(C(=O)O)cn5c4c3OC[C@@H]5C)CC2)nc(C(C)C)n1 [ML-83-011, (S)-9-fluoro-10-(4-(2-isopropyl-6-methylpyrimidin-4-yl)piperazin-1-yl)-3-methyl-7-oxo-2,3-dihydro-7H-[1,4]oxazino[2,3,4-ij]quinoline-6-carboxylic acid]	0.25	16	16	1		8	64	16-64	16		1-8	MIC, KP13368 (KP13368; ESKAPE panel, Gram-negative): 64 µg/mL (≈ 133 µM); MIC (KP13368; Klebsiella pneumoniae (KP13368), Gram-Negative, read-out: MIC): 64 µg/mL (≈ 133 µM); MIC, M6 (M6; in µg/mL): 16-64; MIC (M6; Klebsiella pneumoniae (M6), Gram-Negative, read-out: MIC): 16 to 64 µg/mL (≈ 33.2 to 133 µM); MIC (Ab17978; Acinetobacter baumannii (AB17978), Gram-Negative, read-out: MIC): 16 µg/mL (≈ 33.2 µM); MIC, Ab17978 (Ab17978; in µg/mL): 16; MIC, EC12923 (EC12923; in µg/mL): 1-8; MIC (EC12923; Escherichia coli (EC12923), Gram-Negative, read-out: MIC): 1 to 8 µg/mL (≈ 2.08 to 16.6 µM); MIC (MSSA9144; Staphylococcus aureus (MSSA9144), Gram-Positive, read-out: MIC): 0.25 µg/mL (≈ 0.519 µM); MIC, EMRSA15 (EMRSA15; [3]): 16; MIC (EMRSA15; Staphylococcus aureus, Staphylococcus aureus (EMRSA15), Gram-Positive (Table 14), read-out: MIC): 16 µg/mL (≈ 33.2 µM); MIC, EMRSA16 (EMRSA16; [3]): 16; MIC (EMRSA16; Staphylococcus aureus (EMRSA16), Gram-Positive (Table 14), read-out: MIC): 16 µg/mL (≈ 33.2 µM); MIC, VSE775 (VSE775; ESKAPE panel, Gram-positive): 1; MIC (VSE775; Enterococcus faecalis, Enterococcus (VRE775), Gram-Positive, read-out: MIC): 1 µg/mL (≈ 2.08 µM); MIC, VRE12201 (VRE12201; [3]): 0.5-1; MIC (VRE12201; Enterococcus faecalis, Enterococcus (VRE12201), Gram-Positive, read-out: MIC): 0.5 to 1 µg/mL (≈ 1.04 to 2.08 µM); MIC, VRE12204 (VRE12204; ESKAPE panel, Gram-positive): 8
Cc1cc(N2CCN(c3c(F)cc4c(=O)c(C(=O)O)cn5c4c3OC[C@@H]5C)CC2)nc(C(C)C)n1 [ML-83-012, hydrochloride]												MIC (KP13368; Klebsiella pneumoniae (KP13368), Gram-Negative): 64 µg/mL; MIC, M6 (M6; hydrochloride, in µg/mL): 16; MIC, Ab17978 (Ab17978; hydrochloride, in µg/mL): 8; MIC, PA01 (PA01; ESKAPE panel, Gram-negative, hydrochloride): 32; MIC, EC12923 (EC12923; hydrochloride, in µg/mL): 4; MIC, MSSA9144 (MSSA9144; [3]): 0.25; MIC (MSSA9144; Staphylococcus aureus (MSSA9144), Gram-Positive): 0.25 µg/mL; MIC (EMRSA16; Staphylococcus aureus (EMRSA16), Gram-Positive (Table 14), hydrochloride): 2 µg/mL; MIC (VSE775; Enterococcus (VRE775), Gram-Positive): 0 to 5 µg/mL
C[C@H]1COc2c(N3CCN(c4ccncc4)CC3)c(F)cc3c(=O)c(C(=O)O)cn1c23 [ML-83-019]	64							64	64		32	
CCn1cc(C(=O)O)c(=O)c2cc(F)c(N3CCN(Cc4cccc(COC)c4)CC3)cc21 [ML-83-037, 1-ethyl-6-fluoro-7-(4-(3-(methoxymethyl)benzyl)piperazin-1-yl)-4-oxo-1,4-dihydroquinoline-3-carboxylic acid]	1	64-128	64	16	8	16	64-128	32	8		16	
C[C@H]1COc2c(N3CCC(n4cccn4)CC3)c(F)cc3c(=O)c(C(=O)O)cn1c23 [ML-83-041, (S)-10-(4-(1H-pyrazol-1-yl)piperidin-1-yl)-9-fluoro-3-methyl-7-oxo-2,3-dihydro-7H-[1,4]oxazino[2,3,4-ij]quinoline-6-carboxylic acid]	2			8	8	16	32	4	4-8	64	2	
CCn1cc(C(=O)O)c(=O)c2cc(F)c(N3CCN(Cc4ccc(COC)cc4)CC3)cc21 [ML-83-052, 1-ethyl-6-fluoro-7-(4-(4-(methoxymethyl)benzyl)piperazin-1-yl)-4-oxo-1,4-dihydroquinoline-3-carboxylic acid]	0.5-1	64-128	64	8-16	8	16	64	8-16	4		4	
